Reference: patent publication US9926302B2, “Heteroaryl substituted heterocyclyl sulfones” (priority 2014, dated 2018)

Target: T1, Human CaV2.2 channels (Homo sapiens, UniProt Q00975)
T1 construct: expressed in transfected cells
Experiment: Fluorescence assay for CaV2.2 channels using potassium depolarization to induce channel opening (FLIPR, Fluo 4)
Type: cell-based
Conditions: 3 μM test compound; alternative assay buffer 30 mM KCl (inactivated channel state); HEK293 cells stably expressing human CaV2.2
In short: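 HEK293 cells stably co-expressing CaV2.2 with alpha2-delta and beta subunits plus Kir2.3, loaded with 2 μM Fluo 4 and pre-incubated 15 min at 25° C with compound in 1 mM or 30 mM KCl buffer (pH 7.4; latter promotes inactivated state). Depolarized by KCl addition; peak fluorescence amplitude normalized to baseline gives inhibition.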

T1 sequence (P54289 947-1103): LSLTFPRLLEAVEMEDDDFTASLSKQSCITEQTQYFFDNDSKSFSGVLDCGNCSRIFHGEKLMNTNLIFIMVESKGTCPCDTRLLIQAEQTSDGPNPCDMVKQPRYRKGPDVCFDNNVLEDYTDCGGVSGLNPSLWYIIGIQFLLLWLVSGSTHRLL
T1 sequence (P54289 25-946): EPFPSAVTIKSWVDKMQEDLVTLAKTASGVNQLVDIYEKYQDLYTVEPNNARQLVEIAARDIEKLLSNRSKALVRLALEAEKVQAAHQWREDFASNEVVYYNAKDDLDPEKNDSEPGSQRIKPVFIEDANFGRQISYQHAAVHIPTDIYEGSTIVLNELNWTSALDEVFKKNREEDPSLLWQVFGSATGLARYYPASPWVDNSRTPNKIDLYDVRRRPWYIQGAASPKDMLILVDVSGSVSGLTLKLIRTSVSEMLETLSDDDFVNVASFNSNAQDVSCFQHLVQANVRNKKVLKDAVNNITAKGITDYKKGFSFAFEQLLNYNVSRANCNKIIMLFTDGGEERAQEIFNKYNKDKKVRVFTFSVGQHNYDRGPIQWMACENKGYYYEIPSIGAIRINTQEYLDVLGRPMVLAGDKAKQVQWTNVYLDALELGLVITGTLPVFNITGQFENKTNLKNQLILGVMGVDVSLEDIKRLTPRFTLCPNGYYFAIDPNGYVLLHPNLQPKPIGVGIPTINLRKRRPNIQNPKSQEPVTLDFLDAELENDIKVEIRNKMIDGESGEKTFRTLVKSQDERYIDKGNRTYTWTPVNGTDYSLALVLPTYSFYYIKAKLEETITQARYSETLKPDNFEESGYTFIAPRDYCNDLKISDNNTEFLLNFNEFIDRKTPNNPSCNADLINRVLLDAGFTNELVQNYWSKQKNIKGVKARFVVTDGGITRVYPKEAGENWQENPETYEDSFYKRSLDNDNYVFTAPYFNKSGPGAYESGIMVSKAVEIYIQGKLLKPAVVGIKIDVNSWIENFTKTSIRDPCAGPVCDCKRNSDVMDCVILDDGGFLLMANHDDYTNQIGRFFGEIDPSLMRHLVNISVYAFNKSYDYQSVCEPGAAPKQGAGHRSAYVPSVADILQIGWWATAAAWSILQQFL
T1 sequence (P54284 whole entry, further chain): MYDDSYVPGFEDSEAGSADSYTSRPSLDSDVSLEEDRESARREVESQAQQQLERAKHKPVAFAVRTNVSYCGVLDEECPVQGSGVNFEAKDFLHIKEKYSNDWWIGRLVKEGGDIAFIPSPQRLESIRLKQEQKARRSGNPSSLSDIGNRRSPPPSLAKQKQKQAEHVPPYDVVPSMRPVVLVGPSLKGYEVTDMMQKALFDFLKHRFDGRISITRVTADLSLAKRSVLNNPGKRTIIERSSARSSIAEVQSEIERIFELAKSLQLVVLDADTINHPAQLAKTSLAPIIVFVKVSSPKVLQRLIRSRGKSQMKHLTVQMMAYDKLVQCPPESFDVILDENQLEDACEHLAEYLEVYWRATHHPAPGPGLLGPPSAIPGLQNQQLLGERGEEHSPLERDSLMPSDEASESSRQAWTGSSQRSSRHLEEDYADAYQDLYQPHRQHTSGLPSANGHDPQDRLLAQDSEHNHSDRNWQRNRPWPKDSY
T1 sequence (Q00975 whole entry): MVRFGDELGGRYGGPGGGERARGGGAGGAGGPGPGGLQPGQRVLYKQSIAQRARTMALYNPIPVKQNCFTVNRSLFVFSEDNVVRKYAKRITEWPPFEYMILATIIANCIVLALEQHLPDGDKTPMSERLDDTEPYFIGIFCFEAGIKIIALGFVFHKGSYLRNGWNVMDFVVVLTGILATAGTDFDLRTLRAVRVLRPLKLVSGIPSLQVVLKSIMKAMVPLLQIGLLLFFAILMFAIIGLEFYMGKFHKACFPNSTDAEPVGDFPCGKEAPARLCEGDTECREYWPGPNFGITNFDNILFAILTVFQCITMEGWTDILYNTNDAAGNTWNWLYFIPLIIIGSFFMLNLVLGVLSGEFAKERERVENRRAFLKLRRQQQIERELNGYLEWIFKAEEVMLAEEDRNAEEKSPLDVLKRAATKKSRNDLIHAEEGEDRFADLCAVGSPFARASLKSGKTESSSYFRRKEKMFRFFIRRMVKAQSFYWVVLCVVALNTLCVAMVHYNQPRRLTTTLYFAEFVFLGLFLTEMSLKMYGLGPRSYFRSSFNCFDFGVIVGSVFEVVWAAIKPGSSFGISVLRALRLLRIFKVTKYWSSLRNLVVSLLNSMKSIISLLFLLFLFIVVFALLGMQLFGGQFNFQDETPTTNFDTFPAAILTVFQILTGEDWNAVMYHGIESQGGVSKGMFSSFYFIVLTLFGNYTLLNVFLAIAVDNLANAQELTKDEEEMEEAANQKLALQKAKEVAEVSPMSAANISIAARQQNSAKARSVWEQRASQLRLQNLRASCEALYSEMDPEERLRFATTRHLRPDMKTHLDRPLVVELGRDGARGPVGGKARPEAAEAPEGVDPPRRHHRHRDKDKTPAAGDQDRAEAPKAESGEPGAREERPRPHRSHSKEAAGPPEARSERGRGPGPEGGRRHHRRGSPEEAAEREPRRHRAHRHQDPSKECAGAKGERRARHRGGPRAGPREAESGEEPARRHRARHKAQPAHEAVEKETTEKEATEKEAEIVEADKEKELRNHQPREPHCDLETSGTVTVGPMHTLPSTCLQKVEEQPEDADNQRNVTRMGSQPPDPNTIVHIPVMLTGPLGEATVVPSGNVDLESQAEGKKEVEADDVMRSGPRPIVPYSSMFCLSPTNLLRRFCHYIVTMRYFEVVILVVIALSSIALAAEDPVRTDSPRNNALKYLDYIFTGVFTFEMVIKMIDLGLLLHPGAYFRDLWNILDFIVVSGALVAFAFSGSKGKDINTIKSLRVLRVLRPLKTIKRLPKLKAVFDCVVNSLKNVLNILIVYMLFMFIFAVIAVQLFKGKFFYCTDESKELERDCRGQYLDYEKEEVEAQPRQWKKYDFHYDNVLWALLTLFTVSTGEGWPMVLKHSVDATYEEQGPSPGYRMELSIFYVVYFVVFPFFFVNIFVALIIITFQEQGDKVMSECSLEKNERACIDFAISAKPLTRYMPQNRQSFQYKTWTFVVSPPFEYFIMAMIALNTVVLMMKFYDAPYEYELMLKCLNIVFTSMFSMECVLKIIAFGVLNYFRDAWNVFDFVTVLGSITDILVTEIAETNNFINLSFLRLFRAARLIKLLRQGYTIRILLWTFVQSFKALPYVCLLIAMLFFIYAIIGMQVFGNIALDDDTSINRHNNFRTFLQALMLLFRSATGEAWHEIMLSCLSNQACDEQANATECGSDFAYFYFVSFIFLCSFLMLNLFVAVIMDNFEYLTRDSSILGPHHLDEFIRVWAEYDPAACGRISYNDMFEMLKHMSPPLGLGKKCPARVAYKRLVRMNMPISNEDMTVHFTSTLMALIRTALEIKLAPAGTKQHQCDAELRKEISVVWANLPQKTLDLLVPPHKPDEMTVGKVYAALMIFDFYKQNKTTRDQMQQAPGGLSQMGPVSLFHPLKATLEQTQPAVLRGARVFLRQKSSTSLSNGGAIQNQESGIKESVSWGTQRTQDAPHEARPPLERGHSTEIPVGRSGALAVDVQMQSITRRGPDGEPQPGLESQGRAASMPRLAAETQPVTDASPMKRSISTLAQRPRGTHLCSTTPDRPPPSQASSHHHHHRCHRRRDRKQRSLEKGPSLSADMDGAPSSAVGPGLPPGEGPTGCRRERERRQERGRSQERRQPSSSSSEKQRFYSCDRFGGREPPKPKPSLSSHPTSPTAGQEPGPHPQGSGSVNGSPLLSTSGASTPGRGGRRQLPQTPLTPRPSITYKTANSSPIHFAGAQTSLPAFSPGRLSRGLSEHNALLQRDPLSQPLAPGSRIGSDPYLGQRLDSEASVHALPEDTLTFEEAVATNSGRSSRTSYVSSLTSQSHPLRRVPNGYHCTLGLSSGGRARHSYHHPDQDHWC

SMILES	Activity Category: %-Inhib (CaV2.2) @3 μM @30 mM KCl
Cc1cc(S(C)(=O)=O)cnc1C1CC(C)(S(=O)(=O)c2cccc(OC(F)(F)F)c2)CCO1 (centres unmarked) [SC-449, 3-Methyl-5-methylsulfonyl-2-[4-methyl-4-[[3-(trifluoromethyloxy)-phenyl]sulfonyl]-tetrahydro-pyran-2-yl]-pyridine]	B (%-Inhibition >75% up to ≤95%)
Cc1cc(S(C)(=O)=O)cnc1C1CC(C)(S(=O)(=O)c2cccc(OC(F)(F)F)c2)CCO1 (centres unmarked) [SC-450, 3-Methyl-5-methylsulfonyl-2-[4-methyl-4-[[3-(trifluoromethyloxy)-phenyl]sulfonyl]-tetrahydro-pyran-2-yl]-pyridine]	C (%-Inhibition >40% up to ≤75%)
